According to PubChem BioAssay AID179 (DTP/NCI, 2004):
“And” between values parts separate entries of the source, which are not always exact repeats. Equal values may be shown once. The source made the active and inactive calls.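 How the source made its calls: active means compounds giving half or more protection of infected cells from virus-caused growth loss, again on retest; inactive means the rest.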 *1 amine or outer side, *2 acyl side, *3 side chain or, on linkers, in order; H or OH if unused. Where a SMILES comes first, the peptide text is derived from it. [ ]: non-standard residue; d: D form. X21 = NC(=O)CCC(CN[*:1])C(=O)[*:2]

Test system: CEM cells HIV-1 protection, formazan growth assay
Assay: NCI AIDS Antiviral Assay
Conditions: for IC50: measured here: growth of uninfected CEM cells
How it was run: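 Screen of anti-HIV-1 activity in human CEM cells using a formazan-based growth measurement at five drug concentrations. Hits with 50% or greater protection were repeated, and confirmation required reproducible complete protection.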

| Compound | EC50 [µM] | IC50 | outcome |
| --- | --- | --- | --- |
| CC[C@@H](C(=O)[C@@H](C)[C@@H](O)[C@H](C)CCc1ccc(C)c(O)c1C(=O)O)[C@H]1O[C@](CC)([C@H]2CC[C@](O)(CC)[C@H](C)O2)C[C@@H]1C | 1.51 | 1.82 µM |  |
| COC(=O)/C=C1\C(=O)N(C(C)=O)c2ccccc21 | > 200 | 3.31 µM |  |
| CC(C)CC(NC(=O)C(Cc1ccc(O)cc1)NC(=O)C(C)N)C(=O)NCC(=O)NC(CCCCN)C(=O)NC(CCCCN)C(=O)NC(C(=O)NC(C)C(=O)NC(C(=O)NC(CC(N)=O)C(=O)O)C(C)O)C(C)C (stereo unspecified) (H-AYLGKKVATN-OH; configuration not given here) |  |  | inactive |
| Cn1c(COc2ccc(/C=N\N3CCN(/N=C\c4ccc(OCc5c[n+]6ccccc6n5C)cc4)CC3)cc2)c[n+]2ccccc12 | 6.31 | 7.59 µM |  |
| CCOC(=O)c1cc(-c2ccc([N+](=O)[O-])cc2)c([N+](=O)[O-])[nH]1 | > 200 | 7.94 µM |  |
| CC1(C)CC(Br)(Cc2ccccc2)C(=O)c2ccccc21 (stereo unspecified) | > 200 | 7.94 µM |  |
| O=C1c2c(O)ccc(O)c2C(=O)c2c(NCCNC(=O)C(O)C(O)C(O)C(O)CO)ccc(NCCNC(=O)C(O)C(O)C(O)C(O)CO)c21 (stereo unspecified) | > 100 | 0.0316 µM |  |
| COc1cc2oc(-c3ccc(O)cc3)c(OC3OC(C)C(O)C(O)C3O)c(=O)c2c(O)c1OC (stereo unspecified) |  |  | inactive |
| CCN1CCC(O)(/C=C/c2ccc(C)cc2)C(C(=O)/C=C/c2ccc(C)cc2)C1 (stereo unspecified) | > 117 | 2.57 µM |  |
| O=C1/C(=C\c2cccc(Oc3ccccc3)c2)SC(c2ccccc2)N1c1ccccc1Cl (stereo unspecified) | > 20 |  |  |
| O=C1NC(O)c2ccccc2O1 (stereo unspecified) | 85.1 | > 200 µM |  |
| O=C1OC(C2Cc3ccccc3C2=O)c2ccccc21 (stereo unspecified) | > 200 | 186 µM |  |
| CC(=O)C1C(=O)C(=O)N(c2ccc(Br)cc2)C1=O (stereo unspecified) |  |  | inactive |
| COC(=O)c1ccc2c(c1)CC1(C2)Cc2cc3c(c(C(=O)OC)c2C1)CCCC3 (stereo unspecified) | > 200 | > 200 µM |  |
| CC(C)[C@@H]1C=C(c2ccccc2)c2ccccc2C1C(C#N)(C#N)C(C)C (stereo partly specified) | > 20.4 | > 20.4 µM |  |
| O=C(NC(=O)c1cn(CCNCCO)c(=O)[nH]c1=O)OCc1ccccc1 |  |  | inactive |
| COC(=O)CC1(O)C(C=C(C)C)C(C(=O)OC)C(=O)C(C(=O)OC)C1C(=O)OC (stereo unspecified) | > 200 | > 200 µM |  |
| COC(=O)c1cc(C(=CCCO)c2cc(Br)c(OC)c(C(=O)OC)c2)cc(Br)c1OC | > 200 | 12.6 µM |  |
| CC1(C)CC(=O)c2c(nc(SSc3nc4c(c(-c5ccc(Br)cc5)c3C#N)C(=O)CC(C)(C)C4)c(C#N)c2-c2ccc(Br)cc2)C1 | 18.6 | 162 µM |  |
| CC(=O)OCC1OC(n2c(S)c(C#N)c(-c3ccccc3)c(C#N)c2=O)C(OC(C)=O)C(OC(C)=O)C1OC(C)=O (stereo unspecified) | > 200 | > 200 µM and 21.9 µM |  |
| COC(=O)C1(C)OS(=O)(=O)c2ccccc21 (stereo unspecified) | > 537 | > 537 µM |  |
| C/C=C/C(=O)C(C)C1=CC(=O)C2=C(OC34CC[C@H](O)C(C)(C)[C@@H]3CC[C@H](C)C4(C)C2)C1=O (stereo partly specified) |  |  | inactive |
| O=c1[nH]c(=O)n(C2CC(O)C(CO)O2)c2nc3cc4ccccc4cc3nc12 (stereo unspecified) | > 200 | > 200 µM |  |
| CCCCCCCC(=O)c1ccc(O)c(-c2nc3ccc(C(F)(F)F)cc3[nH]2)c1 | > 24.5 | 2.09 µM |  |
| Cc1ccc(C(=O)/C=C/c2ccccc2)s1 | > 200 | 10.7 µM |  |
| COc1ccc(CC2=NCCc3cc(OC)c(OC)cc32)cc1Br | > 240 | 3.47 µM |  |
| CCSc1nc2c([nH]1)c(=S)n(C)c(=S)n2C | > 200 | 41.7 µM |  |

| Compound | EC50 [µM] | IC50 | outcome |
| --- | --- | --- | --- |
| O=C(COc1cc(=O)oc2ccccc12)c1ccccc1 | > 200 | 151 µM |  |
| [Se]c1nc2ccccc2o1 | > 224 | 53.7 µM |  |
| O=[N+]([O-])c1ccc(-c2noc(-c3ccccc3)c2C2=NCCN2)cc1 | > 15.5 | > 15.5 µM |  |
| Cc1ccc(N=Nc2ccc(O)c(CN(C)C)c2)cc1C | > 200 | 17.4 µM |  |
| COC(=O)CC1NC(=O)[C@]1(C)[C@H](C)O (stereo partly specified) | > 1230 | > 1230 µM |  |
| Nc1nc2c(ncn2C(CCO)SCCO)c(=O)[nH]1 (stereo unspecified) | > 871 | > 871 µM |  |
| O=C1c2cccc(O)c2C(=O)c2cccc(O)c21 | > 4.37 | > 4.37 µM |  |
| COc1ccc2c(C)cc(=O)oc2c1OC | > 200 | > 200 µM |  |
| COc1cc2c(c(OC)c1OC)-c1ccc(OC)c(=O)cc1C([N+](C)(C)C)CC2 (stereo unspecified) | > 200 | 11 µM |  |
| COC(=O)c1ccc(COC(=O)N2C=CCC2C(=O)O)cc1 (stereo unspecified) | > 200 | > 200 µM |  |
| CN(C)CCCCC1CCN(CC(=O)N2c3ccccc3NC(=O)c3ccccc32)CC1 | > 302 | 155 µM |  |
| COc1cccc(C(C#N)NC23CC4CC(CC(C4)C2)C3)c1 (stereo unspecified) |  |  | inactive |
| COc1ccc(OC)c(NC(=O)C2=C(C)NC(C)=C(C(=O)Nc3cc(OC)ccc3OC)C2c2ccccc2)c1 |  |  | inactive |
| Cc1ccc(C(=O)Nc2ccccc2)cc1N=NN(C)C | > 331 | 288 µM |  |
| COc1ccc(C2=C(c3ccccc3)C(=O)C(c3ccccc3)=C2c2ccccc2)cc1 |  |  | inactive |
| C1=C(c2ccccc2)SC(N2CCCCC2)S1 (stereo unspecified) |  |  | inactive |
| Cc1cccc(C)c1NC(=O)C(=O)Cc1nc2ccccc2s1 |  |  | inactive |
| Cc1oc2nc(N(C)C)n3c(C)nnc3c2c1C |  |  | inactive |
| O=c1c(O)c(-c2ccc(O)cc2O)oc2cc(O)cc(O)c12 |  |  | inactive |
| O=C(O)c1ccccc1C(=O)NC(Cc1cnc[nH]1)C(=O)O (stereo unspecified) | > 200 | > 200 µM |  |
| C/C(CC(=O)Nc1ccc(Cl)c(Cl)c1)=N/NC(=O)C[n+]1ccccc1 | > 162 | > 162 µM |  |
| Cc1cccc2[s+]snc12 | > 245 | 75.9 µM |  |
| COc1ccc(N=NN2CCCC2)cc1 | > 200 | 15.5 µM |  |
| COC1(c2ccc(Cl)cc2)SC=C(C)n2c1noc2=O (stereo unspecified) | > 200 | > 200 µM |  |
| c1ccc(CN2COc3c(c4c(c5ccccc35)OCN(Cc3ccccc3)C4)C2)cc1 | > 61.7 | > 61.7 µM |  |
| Cc1ccc(S(=O)(=O)N2CCN3CCN(CCN(C)CCN4CCN(CC4)CCN(S(=O)(=O)c4ccc(C)cc4)CCN(S(=O)(=O)c4ccc(C)cc4)CCN(S(=O)(=O)c4ccc(C)cc4)CCN(S(=O)(=O)c4ccc(C)cc4)CCN4CCN(CCN(C)CCN5CCN(CC5)CCN(S(=O)(=O)c5ccc(C)cc5)CCN(S(=O)(=O)c5ccc(C)cc5)CCN(S(=O)(=O)c5ccc(C)cc5)CC2)CC4)CC3)cc1 | > 5.01 | 0.724 µM |  |
| C/C(=N\NC(=O)C[N+](C)(C)C)c1sc(-c2cccnc2)nc1C | > 135 | 72.4 µM |  |

| Compound | EC50 [µM] | IC50 | outcome |
| --- | --- | --- | --- |
| COc1ccc(N=Nc2c(N)nn3cc4c(nc23)-c2ccccc2C4)cc1 | > 200 |  |  |
| CC(C)C(F)(C(N)=O)C(=O)O (stereo unspecified) | > 200 | > 200 µM |  |
| COc1ccc(-n2cnc3c2NC(C)(C)N=C3C(N)=O)c(OC)c1 | > 200 | > 200 µM |  |
| CC(C)(C)NC(NC(C)(C)C)=C(C(Cl)=C(Cl)Cl)[N+](=O)[O-] | > 200 | > 200 µM |  |
| Nc1ccccc1-c1nc2ccncc2[nH]1 | > 851 | 302 µM |  |
| C/C=C/CC(C)C(OS(=O)(=O)O)C1C(=O)NC(CC)C(=O)N(C)CC(=O)N(C)C(CC(C)C)C(=O)NC(C(C)C)C(=O)N(C)C(CC(C)C)C(=O)NC(C)C(=O)NC(C)C(=O)N(C)C(CC(C)C)C(=O)N(C)C(CC(C)C)C(=O)N(C)C(C(C)C)C(=O)N1C (stereo unspecified) | 0.661 | 6.61 µM |  |
| O=S(=O)(Cc1ccccc1)c1nnc(S(=O)(=O)c2ccc(Cl)cc2)s1 | > 200 | 5.5 µM |  |
| Nc1ccccc1Sc1ccccc1 | > 372 | 77.6 µM |  |
| CN(O)C(=O)c1ccccc1 | > 1660 | 1380 µM |  |
| COc1ccc(-n2c(=O)n(C)c(=O)n2-c2c(C)c(C)c(C)c(C)c2C)cc1 | > 100 | 18.6 µM |  |
| CCCC1C(C#N)(C#N)C(C#N)=C(N)C1(C)C(C)=O (stereo unspecified) | > 200 | > 200 µM |  |
| Cc1ccc(C2C(Cl)C(=O)N2NC(=O)c2ccc(N)cc2)cc1 (stereo unspecified) | > 200 | 13.5 µM |  |
| O=C1c2ccccc2C(=O)N1CCN(CCN1C(=O)c2ccccc2C1=O)Cn1cccn1 |  |  | inactive |
| Cc1nc(N)c(N2CCN(Cc3ccccc3)CC2)c(=O)[nH]1 | > 200 | > 200 µM |  |
| O=c1oc2ccccc2c(O)c1C(c1ccc(OCc2ccccc2)cc1)c1c(O)c2ccccc2oc1=O | > 200 | 30.2 µM |  |
| C#CCNC(Cc1ccccc1)C(=O)O (stereo unspecified) | > 200 | > 200 µM |  |
| CCC(/C=C/C1OC(=O)C=CC1C)=C\C(C)C/C=C/C(C)=C/C(C)C(=O)C(C)C(O)C(C)C/C(C)=C/C(=O)O (stereo unspecified) |  |  | inactive |
| O=S(=O)(OC=C1CCCCC1)C(F)(F)F | > 107 | > 107 µM |  |
| CC(=O)C1(N=Nc2ccc(S(=O)(=O)Nc3onc(C)c3C)cc2)CCOC1=O (stereo unspecified) | > 200 | > 200 µM |  |
| COc1ccc(NC(=O)CC(=O)N2N=C(N(CCC#N)c3cccc(C)c3)CC2c2ccccc2)cc1 (stereo unspecified) | > 100 | > 100 µM |  |
| COc1ccc(/C=C2\SC(=S)N(/C=C(/C#N)C(=O)c3ccc4ccccc4c3)C2=O)cc1OC | > 200 | 11.7 µM |  |
| CC(C)CCCC(C)[C@H]1CCC2[C@@H]3CCC4Nc5[nH]ncc5C[C@]4(C)C3CC[C@@]21C (stereo partly specified) |  |  | inactive |
| O=C1/C(=C/c2ccco2)NC(=S)N1CN1CCCCC1 | > 200 | 32.4 µM |  |
| CCC(C)C(NC(=O)C(CCC(N)=O)NC(=O)C1CCCN1)C(=O)NC(C(=O)NC(CC(C)C)C(=O)NC(Cc1c[nH]c2ccccc12)C(=O)NCC(CCC(N)=O)C(=O)NC(CCCN=C(N)N)C(=O)N1CCCC1C(=O)NC(CC(C)C)C(=O)O)C(C)O (stereo unspecified) (H-PQITLW[X21]RPL-OH; configuration not given here) |  |  | inactive |
| Cc1csc([C@H]2CCC3[C@@H]4CC=C5C[C@@H](O)CC[C@]5(C)C4CC[C@@]32C)n1 (stereo partly specified) | > 67.6 | > 67.6 µM |  |
| O=C(O)CCCCCCC[C@@H]1S[C@H]1CCCCCCO |  |  | inactive |
